*1 amine or outer side, *2 acyl side, *3 side chain or, on linkers, in order; H or OH if unused. Where a SMILES comes first, the peptide text is derived from it. Bridges are numbered along the chain shown (N, C = ends). [ ]: non-standard residue; d: D form. The star is where a group is joined. ξ: configuration not given here. Phe(3-CF3) = N[C@@H](Cc1cccc(C(F)(F)F)c1)C(=O)O; Ala(morpholin-4-yl) = N[C@@H](CN1CCOCC1)C(=O)O; Phe(4-COOH) = N[C@@H](Cc1ccc(C(=O)O)cc1)C(=O)O; Bip = N[C@@H](Cc1ccc(-c2ccccc2)cc1)C(=O)O; Phe(3-Me) = Cc1cccc(C[C@H](N)C(=O)O)c1; γGlu = O=C(O)[C@H](CCC(=O)[*:2])N[*:1]; NH(CH2)12COOH = O=C(O)CCCCCCCCCCCCN*; Val(3-OH) = CC(C)(O)[C@H](N)C(=O)O; 3Pal = N[C@@H](Cc1cccnc1)C(=O)O; Cha = N[C@@H](CC1CCCCC1)C(=O)O; Cit = NC(=O)NCCC[C@H](N)C(=O)O; Ile(3ξ) = CCC(C)[C@H](N)C(=O)O; Thr(3ξ) = CC(O)[C@H](N)C(=O)O; 12Ado = NCCCCCCCCCCCC(=O)O; Carboxymethyl = O=C(O)C*; NMeA = CN[C@@H](C)C(=O)O; Orn = NCCC[C@H](N)C(=O)O; Aun = NCCCCCCCCCCC(=O)O; Dab = NCC[C@H](N)C(=O)O; Dap = NC[C@H](N)C(=O)O; AEEA = NCCOCCOCC(=O)O; ξDab = NCCC(N)C(=O)O

Usually IC50 stands for the concentration at which inhibition is half-maximal.

The target in the first assay is T1, PD-1/PD-L1 interaction (PE-labeled human PD-L1-Ig binding to Jurkat cell line over-expressing human PD-1) (Homo sapiens, UniProt Q15116).
T1 construct: expressed in transfected cells; host or cells: Jurkat
T1 sequence (Q15116 25-288): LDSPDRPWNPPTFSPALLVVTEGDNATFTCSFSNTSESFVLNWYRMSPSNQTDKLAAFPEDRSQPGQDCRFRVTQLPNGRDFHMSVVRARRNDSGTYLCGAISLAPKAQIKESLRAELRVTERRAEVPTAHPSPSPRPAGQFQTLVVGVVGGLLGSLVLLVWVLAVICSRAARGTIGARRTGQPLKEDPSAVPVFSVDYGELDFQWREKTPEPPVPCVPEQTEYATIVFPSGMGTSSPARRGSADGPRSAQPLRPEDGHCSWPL
Put plainly: Jurkat-PD-1 Cell Binding High-Content Screening Assay (CBA). Conditions: Jurkat-hPD-1 cells, PE-labeled PD-L1-Ig 20 nM final; read-out: Jurkat HPD1 PDL1 IC50. A digest of the protocol:
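Jurkat-hPD-1 cells (8×10^3/well) in DMEM with 10% fetal calf serum were preincubated with compound for 2 h at 37 °C. PE-labeled PD-L1-Ig was then added at 20 nM final for 1 h. Cells were fixed in paraformaldehyde with Hoechst 33342, washed and imaged by high-content imaging.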
Turning to `CC(C)C[C@@H]1NC(=O)[C@H](Cc2c[nH]c3ccccc23)NC(=O)[C@H](CC(=O)O)NC(=O)[C@H](Cc2ccc(C(=O)O)cc2)NC(=O)[C@H](Cc2ccc(OCC(=O)O)cc2)NC(=O)CSC[C@@H](C(=O)N[C@@H](CCCNC(=N)N)C(=O)NCCCCCCCCCCC(=O)O)NC(=O)[C@H](CCCNC(N)=O)NC(=O)[C@H](C(C)C)NC(=O)[C@H](CC2CCCCC2)NC(=O)[C@H](CCN)NC(=O)[C@@H](CC(C)C)NC(=O)[C@H](C)N(C)C(=O)[C@H](C(C)C)NC(=O)[C@H](Cc2ccc(-c3ccccc3)cc2)NC1=O` [Example 1100] ({CH2CO}-Y(Carboxymethyl)[Phe(4-COOH)]DWL[Bip]V[NMeA][dL][Dab][Cha]V[Cit]CR[Aun]-OH; thioether N-14), the IC50 came out at 19.8 nM.
Same read-out and setting: the value for `Cc1cccc(C[C@@H]2NC(=O)[C@H](CC(=O)O)NC(=O)[C@H](Cc3ccc(OCC(=O)O)cc3)NC(=O)[C@H](Cc3ccc(OCC(=O)O)cc3)NC(=O)CSC[C@@H](C(=O)N[C@@H](CN)C(=O)NCCCCCCCCCCC(=O)O)NC(=O)[C@H](C(C)O)NC(=O)[C@H](C(C)C)NC(=O)[C@H](CC3CCCCC3)NC(=O)[C@H](CCN)NC(=O)[C@@H](CC(C)C)NC(=O)[C@H](C)N(C)C(=O)[C@H](CCCNC(N)=O)NC(=O)[C@H](Cc3ccc(-c4ccccc4)cc3)NC(=O)[C@H](CC(C)C)NC2=O)c1` (stereo partly drawn) [Example 2334] ({CH2CO}-Y(Carboxymethyl)Y(Carboxymethyl)D[Phe(3-Me)]L[Bip][Cit][NMeA][dL][Dab][Cha]V[Thr(3ξ)]C[Dap][Aun]-OH; thioether N-14) was 22.8 nM; that for `Cc1cccc(C[C@@H]2NC(=O)[C@H](CC(=O)O)NC(=O)[C@H](Cc3ccc(C(=O)O)cc3)NC(=O)[C@H](Cc3ccc(OCC(=O)O)cc3)NC(=O)CSC[C@@H](C(=O)NCC(=O)NCCOCCOCC(=O)NCCCCCCCCCCC(=O)O)NC(=O)[C@H](CO)NC(=O)[C@H](C(C)C)NC(=O)[C@H](CC(C)C)NC(=O)[C@H](CC(N)=O)NC(=O)[C@@H](CC(C)C)NC(=O)[C@H](C)N(C)C(=O)[C@H](C(C)C)NC(=O)[C@H](Cc3ccc(-c4ccccc4)cc3)NC(=O)[C@H](CC(C)C)NC2=O)c1` [Example 1011] ({CH2CO}-Y(Carboxymethyl)[Phe(4-COOH)]D[Phe(3-Me)]L[Bip]V[NMeA][dL]NLVSCG[AEEA][Aun]-OH; thioether N-14) was 24.6 nM.
Same read-out and setting: as for `CC(C)C[C@H]1NC(=O)[C@H](C)N(C)C(=O)[C@H](Cc2ccc(OCC(=O)O)cc2)NC(=O)[C@H](Cc2ccc(-c3ccccc3)cc2)NC(=O)[C@H](Cc2ccc(OCC(=O)O)cc2)NC(=O)[C@H](Cc2c[nH]c3ccccc23)NC(=O)[C@H](CC(=O)O)NC(=O)[C@H](Cc2ccc(OCC(=O)O)cc2)NC(=O)[C@H]([C@@H](C)O)NC(=O)CSC[C@@H](C(=O)N[C@@H](CCN)C(=O)NCCOCCOCC(=O)NCCCCCCCCCCC(=O)O)NC(=O)[C@H](CCC(=O)O)NC(=O)[C@H](C(C)C)NC(=O)[C@H](CC2CCCCC2)NC(=O)[C@H](CCN)NC1=O` [Example 1392] ({CH2CO}-TY(Carboxymethyl)DWY(Carboxymethyl)[Bip]Y(Carboxymethyl)[NMeA][dL][Dab][Cha]VEC[Dab][AEEA][Aun]-OH; thioether N-14), the figure is 62.5 nM; as for `CCC(C)[C@@H]1NC(=O)[C@H](Cc2ccc(-c3ccccc3)cc2)NC(=O)[C@H](C(C)C)NC(=O)[C@H](Cc2c[nH]c3ccccc23)NC(=O)[C@H](CC(=O)O)NC(=O)[C@H](Cc2ccc(OCC(=O)O)cc2)NC(=O)[C@H](Cc2cccnc2)NC(=O)CSC[C@@H](C(=O)N[C@H](CC(N)=O)C(=O)NCCOCCOCC(=O)N[C@@H](CCC(=O)N[C@@H](CCCN)C(=O)NCCCCCCCCCCC(=O)O)C(=O)O)NC(=O)[C@H](CO)NC(=O)[C@H](C(C)C)NC(=O)[C@H](CC(C)C)NC(=O)[C@H](CCN)NC(=O)[C@@H](CC(C)C)NC(=O)[C@H](C)N(C)C1=O` (stereo partly drawn) [Example 2060] ({CH2CO}-[3Pal]Y(Carboxymethyl)DWV[Bip][Ile(3ξ)][NMeA][dL][Dab]LVSC[dN][AEEA][γGlu][Orn][Aun]-OH; thioether N-14), 78 nM; as for `Cc1cccc(C[C@@H]2NC(=O)[C@H](CC(=O)O)NC(=O)[C@H](Cc3ccc(OCC(=O)O)cc3)NC(=O)[C@H]([C@@H](C)O)NC(=O)CSC[C@@H](C(=O)NC(CCN)C(=O)NCCOCCOCC(=O)NCCCCCCCCCCC(=O)O)NC(=O)[C@H](CCC(=O)O)NC(=O)[C@H](C(C)(C)O)NC(=O)[C@H](CC3CCCCC3)NC(=O)[C@H](CCN)NC(=O)[C@@H](CC(C)C)NC(=O)[C@H](C)N(C)C(=O)[C@H](Cc3ccc(OCC(=O)O)cc3)NC(=O)[C@H](Cc3ccc(-c4ccccc4)cc3)NC(=O)[C@H](Cc3ccc(C(=O)O)cc3)NC2=O)c1` (stereo partly drawn) [Example 1423] ({CH2CO}-TY(Carboxymethyl)D[Phe(3-Me)][Phe(4-COOH)][Bip]Y(Carboxymethyl)[NMeA][dL][Dab][Cha][Val(3-OH)]EC[ξDab][AEEA][Aun]-OH; thioether N-14), 28.1 nM.
The same measure, in the same setting: as for `CC(C)C[C@H]1NC(=O)[C@H](C)N(C)C(=O)[C@H](CCC(N)=O)NC(=O)[C@H](Cc2ccc(-c3ccccc3)cc2)NC(=O)[C@H](Cc2ccc(C(=O)O)cc2)NC(=O)[C@H](Cc2cccc(C(F)(F)F)c2)NC(=O)[C@H](CC(=O)O)NC(=O)[C@H](Cc2ccc(OCC(=O)O)cc2)NC(=O)[C@H](CN2CCOCC2)NC(=O)CSC[C@@H](C(=O)N[C@@H](CCN)C(=O)NCCCCCCCCCCCCC(=O)O)NC(=O)[C@H](CO)NC(=O)[C@H](C(C)(C)O)NC(=O)[C@H](CC2CCCCC2)NC(=O)[C@H](CCN)NC1=O` [Example 1152] ({CH2CO}-[Ala(morpholin-4-yl)]Y(Carboxymethyl)D[Phe(3-CF3)][Phe(4-COOH)][Bip]Q[NMeA][dL][Dab][Cha][Val(3-OH)]SC[Dab]-{NH(CH2)12COOH}; thioether N-14), the figure is 11.8 nM; as for `Cc1cccc(C[C@@H]2NC(=O)[C@H](CC(=O)O)NC(=O)[C@H](Cc3ccc(C(=O)O)cc3)NC(=O)[C@H](C(C)O)NC(=O)CSC[C@@H](C(=O)N[C@@H](CCCN)C(=O)N[C@@H](CO)C(=O)NCCCCCCCCCCCC(=O)O)NC(=O)[C@H](CO)NC(=O)[C@H](CCCCN)NC(=O)[C@H](CC3CCCCC3)NC(=O)[C@H](CCN)NC(=O)[C@@H](CC(C)C)NC(=O)[C@H](C)N(C)C(=O)[C@H](Cc3ccc(OCC(=O)O)cc3)NC(=O)[C@H](Cc3ccc(-c4ccccc4)cc3)NC(=O)[C@H](Cc3ccc(OCC(=O)O)cc3)NC2=O)c1` (stereo partly drawn) [Example 2424] ({CH2CO}-[Thr(3ξ)][Phe(4-COOH)]D[Phe(3-Me)]Y(Carboxymethyl)[Bip]Y(Carboxymethyl)[NMeA][dL][Dab][Cha]KSC[Orn]S[12Ado]-OH; thioether N-14), 108 nM; as for `CC(C)C[C@H]1NC(=O)[C@H](C)N(C)C(=O)[C@H](Cc2ccc(OCC(=O)O)cc2)NC(=O)[C@H](Cc2ccc(-c3ccccc3)cc2)NC(=O)[C@H](Cc2ccc(OCC(=O)O)cc2)NC(=O)[C@H](Cc2c[nH]c3ccccc23)NC(=O)[C@H](CC(=O)O)NC(=O)[C@H](Cc2ccc(OCC(=O)O)cc2)NC(=O)[C@H]([C@@H](C)O)NC(=O)CSC[C@@H](C(=O)N[C@@H](CCN)C(=O)NCCOCCOCC(=O)NCCCCCCCCCCC(=O)O)NC(=O)[C@H](CC(N)=O)NC(=O)[C@H](C(C)C)NC(=O)[C@H](CC2CCCCC2)NC(=O)[C@H](CCC(=O)O)NC1=O` [Example 1401] ({CH2CO}-TY(Carboxymethyl)DWY(Carboxymethyl)[Bip]Y(Carboxymethyl)[NMeA][dL]E[Cha]VNC[Dab][AEEA][Aun]-OH; thioether N-14), 63.9 nM.
For `COC[C@@H]1NC(=O)CSC[C@@H](C(=O)N[C@@H](CCN)C(=O)NCCCCCCCCCCCCC(=O)O)NC(=O)[C@H](Cc2c[nH]cn2)NC(=O)[C@H](C(C)(C)O)NC(=O)[C@H](CC2CCCCC2)NC(=O)[C@H](CCN)NC(=O)[C@@H](CC(C)C)NC(=O)[C@H](C)N(C)C(=O)[C@H](CCC(N)=O)NC(=O)[C@H](Cc2ccc(-c3ccccc3)cc2)NC(=O)[C@H](Cc2ccc(C(=O)O)cc2)NC(=O)[C@H](Cc2cccc(C(F)(F)F)c2)NC(=O)[C@H](CC(=O)O)NC(=O)[C@H](Cc2ccc(OCC(=O)O)cc2)NC1=O` [Example 1137] ({CH2CO}-S(Me)Y(Carboxymethyl)D[Phe(3-CF3)][Phe(4-COOH)][Bip]Q[NMeA][dL][Dab][Cha][Val(3-OH)]HC[Dab]-{NH(CH2)12COOH}; thioether N-14), the IC50 is 13.5 nM.

The same assay, now with this note: PE-labeled PD-L1-Ig 20 nM final, Jurkat-hPD-1 cells; read-out: Jurkat HPD1 PDL1 IC50.
Regarding `Cc1cccc(C[C@@H]2NC(=O)[C@H](CC(=O)O)NC(=O)[C@H](Cc3ccc(OCC(=O)O)cc3)NC(=O)[C@H](CN)NC(=O)CSC[C@@H](C(=O)N[C@@H](CCN)C(=O)NCCCCCCCCCCC(=O)O)NC(=O)[C@H](CO)NC(=O)[C@H](Cc3cnc[nH]3)NC(=O)[C@H](CC3CCCCC3)NC(=O)[C@H](CCN)NC(=O)[C@@H](CC(C)C)NC(=O)[C@H](C)N(C)C(=O)[C@H](Cc3ccc(OCC(=O)O)cc3)NC(=O)[C@H](Cc3ccc(-c4ccccc4)cc3)NC(=O)[C@H](Cc3ccc(OCC(=O)O)cc3)NC2=O)c1` [Example 2427] ({CH2CO}-[Dap]Y(Carboxymethyl)D[Phe(3-Me)]Y(Carboxymethyl)[Bip]Y(Carboxymethyl)[NMeA][dL][Dab][Cha]HSC[Dab][Aun]-OH; thioether N-14), the half-maximal inhibitory concentration (IC50) turned out to be 30.7 nM.
Same read-out and setting: the value for `Cc1cccc(C[C@@H]2NC(=O)[C@H](CC(=O)O)NC(=O)[C@H](Cc3ccc(C(=O)O)cc3)NC(=O)[C@H](CCN)NC(=O)CSC[C@@H](C(=O)N[C@@H](CCN)C(=O)NCCCCCCCCCCC(=O)O)NC(=O)[C@H](Cc3cnc[nH]3)NC(=O)[C@H](C(C)(C)O)NC(=O)[C@H](CC3CCCCC3)NC(=O)[C@H](CCN)NC(=O)[C@@H](CC(C)C)NC(=O)[C@H](C)N(C)C(=O)[C@H](Cc3ccc(C(=O)O)cc3)NC(=O)[C@H](Cc3ccc(-c4ccccc4)cc3)NC(=O)[C@H](Cc3ccc(C(=O)O)cc3)NC2=O)c1` [Example 2554] ({CH2CO}-[Dab][Phe(4-COOH)]D[Phe(3-Me)][Phe(4-COOH)][Bip][Phe(4-COOH)][NMeA][dL][Dab][Cha][Val(3-OH)]HC[Dab][Aun]-OH; thioether N-14) was 8.6 nM.

Source of the values: patent US20260070945A1, “MACROCYCLIC IMMUNOMODULATORS” (Bristol-Myers Squibb Company, priority 2022, published 2026).
